Measurements published in patent US20220132852A1, “PESTICIDALLY ACTIVE HETEROCYCLIC DERIVATIVES WITH SULFUR CONTAINING SUBSTITUENTS” (SYNGENTA CROP PROTECTION AG, priority 2019, published 2022).

Legend:
[1] = test system: Myzus persicae (Green Peach Aphid); assay: Example B5: Activity against Myzus persicae (green peach aphid), systemic activity; type: in vivo; conditions: 144 h, test rate 24 ppm, roots of pea seedlings in test solution, mixed ages, 6 days
Protocol: Example B5: Activity Against Myzus persicae (Green Peach Aphid) Systemic Activity
Roots of pea seedlings infested with an aphid population of mixed ages were placed directly into aqueous test solutions prepared from 10′000 DMSO stock solutions. The samples were assessed for mortality 6 days after placing seedlings into test solutions.

[2] = test system: Diabrotica balteata (Corn Root Worm); assay: Example B1: Activity against Diabrotica balteata (corn root worm), sprayed maize sprouts; type: in vivo; conditions: 96 h, application rate 200 ppm, L2 larvae on sprayed maize sprouts, 4 days after infestation, read-out: effect in at least one of the two categories (mortality or growth inhibition)
Protocol: Example B1: Activity Against Diabrotica balteata (Corn Root Worm)
Maize sprouts placed onto an agar layer in 24-well microtiter plates were treated with aqueous test solutions prepared from 10′000 ppm DMSO stock solutions by spraying. After drying, the plates were infested with L2 larvae (6 to 10 per well). The samples were assessed for mortality and growth inhibition in comparison to untreated samples 4 days after infestation.

[3] = test system: Plutella xylostella (Diamond Back Moth); assay: Example B3: Activity against Plutella xylostella (diamond back moth), artificial diet; type: in vivo; conditions: 192 h, application rate 200 ppm, eggs on artificial diet, 8 days after infestation, read-out: effect in at least one of the two categories (mortality or growth inhibition)
Protocol: Example B3: Activity Against Plutella xylostella (Diamond Back Moth)
24-well microtiter plates with artificial diet were treated with aqueous test solutions prepared from 10′000 ppm DMSO stock solutions by pipetting. After drying, Plutella eggs were pipetted through a plastic stencil onto a gel blotting paper and the plate was closed with it. The samples were assessed for mortality and growth inhibition in comparison to untreated samples 8 days after infestation. The following compounds gave an effect of at least 80% in at least one of the two categories (mortality or growth inhibition) at an application rate of 200 ppm: P2, P4, P5, P6, P8, P9, P10, P11, P12, P14, P15, P16, P17, P18, P19, P20, P21, P22, P23, P24, P25, P26, P27, P28, P29, P30, P31, P32, P33, P34, P35, P36, P38, P39, P40, P42, P45, P46, P47, P49, P50, P51, P52.

[4] = test system: Spodoptera littoralis (Egyptian Cotton Leaf Worm); assay: Example B6: Activity against Spodoptera littoralis (Egyptian cotton leaf worm); type: in vivo; conditions: foliar, 72 h, application rate 200 ppm, L1 larvae on sprayed cotton leaf discs, 3 days after infestation, read-out: control (mortality, anti-feeding effect or growth inhibition)
Protocol: Example B6: Activity Against Spodoptera littoralis (Egyptian Cotton Leaf Worm)
Cotton leaf discs were placed onto agar in 24-well microtiter plates and sprayed with aqueous test solutions prepared from 10′000 ppm DMSO stock solutions. After drying the leaf discs were infested with five L1 larvae. The samples were assessed for mortality, anti-feeding effect, and growth inhibition in comparison to untreated samples 3 days after infestation. Control of Spodoptera littoralis by a test sample is given when at least one of the categories mortality, anti-feedant effect, and growth inhibition is higher than the untreated sample.

[5] = test system: Myzus persicae (Green Peach Aphid); assay: whole plant or invertebrate; type: in vivo; conditions: foliar, 144 h, application rate 200 ppm, sprayed sunflower leaf discs, mixed ages, 6 days after infestation
Protocol: Example B4: Activity Against Myzus persicae (Green Peach Aphid) Feeding/Contact Activity
Sunflower leaf discs were placed onto agar in a 24-well microtiter plate and sprayed with aqueous test solutions prepared from 10′000 ppm DMSO stock solutions. After drying, the leaf discs were infested with an aphid population of mixed ages. The samples were assessed for mortality 6 days after infestation.

[6] = test system: Euschistus heros (Neotropical Brown Stink Bug); assay: Example B2: Activity against Euschistus heros (neotropical brown stink bug), sprayed soybean leaves; type: in vivo; conditions: 120 h, application rate 200 ppm, N2 nymphs on sprayed soybean leaves, 5 days after infestation, read-out: effect in at least one of the two categories (mortality or growth inhibition)
Protocol: Example B2: Activity Against Euschistus heros (Neotropical Brown Stink Bug)
Soybean leaves on agar in 24-well microtiter plates were sprayed with aqueous test solutions prepared from 10′000 ppm DMSO stock solutions. After drying the leaves were infested with N2 nymphs. The samples were assessed for mortality and growth inhibition in comparison to untreated samples 5 days after infestation.

[7] = test system: Bemisia tabaci (Cotton White Fly); assay: Example B7: Activity against Bemisia tabaci (cotton white fly); type: in vivo; conditions: foliar, 144 h, application rate 200 ppm, adult white flies on sprayed cotton leaf discs, 6 days after incubation
Protocol: Example B7: Activity Against Bemisia tabaci (Cotton White Fly)
Cotton leaf discs were placed on agar in 24-well microtiter plates and sprayed with aqueous test solutions prepared from 10′000 ppm DMSO stock solutions. After drying the leaf discs were infested with adult white flies. The samples were checked for mortality 6 days after incubation.

[8] = test system: Frankliniella occidentalis (Western Flower Thrips); assay: Example B8: Activity against Frankliniella occidentalis (western flower thrips); type: in vivo; conditions: foliar, 168 h, application rate 200 ppm, sprayed sunflower leaf discs, mixed ages, 7 days after infestation
Protocol: Example B8: Activity Against Frankliniella occidentalis (Western Flower Thrips)
Sunflower leaf discs were placed on agar in 24-well microtiter plates and sprayed with aqueous test solutions prepared from […] stock solutions. After drying the leaf discs were infested with a Frankliniella population of mixed ages. The samples were assessed for mortality 7 days after infestation.

Row | melting point | SMILES | mortality at 24 ppm [1] | percent effect (mortality or growth inhibition) at 200 ppm [2] | percent effect (mortality or growth inhibition) at 200 ppm [3] | percent control (mortality, anti-feedant effect or growth inhibition) at 200 ppm [4] | mortality at 200 ppm [5] | percent effect (mortality or growth inhibition) at 200 ppm [6] | mortality at 200 ppm [7] | mortality at 200 ppm [8]
1 |  | CCS(=O)(=O)c1cc(N(C)C(C)=O)cnc1-c1cc2cnn(CC(F)(F)C(F)(F)F)c2cn1 [Compound P2, N-[5-ethylsulfonyl-6-[1-(2,2,3,3,3-pentafluoropropyl)pyrazolo[3,4-c]pyridin-5-yl]-3-pyridyl]-N-methyl-acetamide] | ≥ 80% | ≥ 80% | ≥ 80% | ≥ 80% | ≥ 80% | ≥ 80% |  | 
2 |  | CCS(=O)(=O)c1cccnc1-c1cc2cnn(CC(F)(F)C(F)(F)F)c2cn1 [Compound P4, 5-(3-ethylsulfonyl-2-pyridyl)-1-(2,2,3,3,3-pentafluoropropyl)pyrazolo[3,4-c]pyridine] | ≥ 80% | ≥ 80% | ≥ 80% | ≥ 80% | ≥ 80% | ≥ 80% |  | 
3 |  | CCS(=O)(=O)c1cc(C(C)(C)C#N)cnc1-c1cc2cnn(CC(F)(F)C(F)(F)F)c2cn1 [Compound P5, 2-[5-ethylsulfonyl-6-[1-(2,2,3,3,3-pentafluoropropyl)pyrazolo[3,4-c]pyridin-5-yl]-3-pyridyl]-2-methyl-propanenitrile] | ≥ 80% | ≥ 80% | ≥ 80% | ≥ 80% | ≥ 80% | ≥ 80% | ≥ 80% | 
4 |  | CCSc1cc(C(C)(C)C#N)cnc1-c1cc2cnn(CC(F)(F)C(F)(F)F)c2cn1 [Compound P6, 2-[5-ethylsulfanyl-6-[1-(2,2,3,3,3-pentafluoropropyl)pyrazolo[3,4-c]pyridin-5-yl]-3-pyridyl]-2-methyl-propanenitrile] |  | ≥ 80% | ≥ 80% | ≥ 80% | ≥ 80% | ≥ 80% | ≥ 80% | ≥ 80%
5 |  | CCSc1cc(C2(C#N)CC2)cnc1-c1cc2cnn(CC(F)(F)C(F)(F)F)c2cn1 [Compound P10, 1-[5-ethylsulfanyl-6-[1-(2,2,3,3,3-pentafluoropropyl)pyrazolo[3,4-c]pyridin-5-yl]-3-pyridyl]cyclopropanecarbonitrile] |  | ≥ 80% | ≥ 80% | ≥ 80% |  | ≥ 80% |  | ≥ 80%
6 |  | CCS(=O)(=O)c1cc(C2(C#N)CC2)cnc1-c1cc2cnn(CC(F)(F)C(F)(F)F)c2cn1 [Compound P11, 1-[5-ethylsulfonyl-6-[1-(2,2,3,3,3-pentafluoropropyl)pyrazolo[3,4-c]pyridin-5-yl]-3-pyridyl]cyclopropanecarbonitrile] |  | ≥ 80% | ≥ 80% | ≥ 80% | ≥ 80% | ≥ 80% | ≥ 80% | ≥ 80%
7 |  | CCS(=O)(=O)c1ccc(N(C)C(C)=O)nc1-c1cc2cnn(CC(F)(F)C(F)(F)F)c2cn1 [Compound P12, N-[5-ethylsulfonyl-6-[1-(2,2,3,3,3-pentafluoropropyl)pyrazolo[3,4-c]pyridin-5-yl]-2-pyridyl]-N-methyl-acetamide] | ≥ 80% | ≥ 80% | ≥ 80% | ≥ 80% | ≥ 80% | ≥ 80% |  | 
8 | 214 to 217 °C | CCS(=O)(=O)c1ccc(N(C)C(=O)NC)nc1-c1cc2ccn(CC(F)(F)C(F)(F)F)c2cn1 [Compound P13, 1-[5-ethylsulfonyl-6-[1-(2,2,3,3,3-pentafluoropropyl)pyrrolo[2,3-c]pyridin-5-yl]-2-pyridyl]-1,3-dimethyl-urea] |  |  |  |  |  |  |  | 
9 |  | CCS(=O)(=O)c1ccc(-c2ncccn2)nc1-c1cc2cnn(CC(F)(F)C(F)(F)F)c2cn1 [Compound P25, 5-(3-ethylsulfonyl-6-pyrimidin-2-yl-2-pyridyl)-1-(2,2,3,3,3-pentafluoropropyl) pyrazolo[3,4-c]pyridine] | ≥ 80% | ≥ 80% | ≥ 80% | ≥ 80% | ≥ 80% | ≥ 80% |  | ≥ 80%
10 |  | CCS(=O)(=O)c1cc(C(F)(F)F)cnc1-c1cc2cnn(CC(F)(F)C(F)(F)F)c2cn1 [Compound P31, 5-[3-ethylsulfonyl-5-(trifluoromethyl)-2-pyridyl]-1-(2,2,3,3,3-pentafluoropropyl) pyrazolo[3,4-c] pyridine] |  | ≥ 80% | ≥ 80% | ≥ 80% |  | ≥ 80% | ≥ 80% | 
11 |  | CCS(=O)(=O)c1cc(C2(C#N)CC2)cnc1-c1cc2ncn(CC(F)(F)C(F)(F)F)c2cn1 [Compound P34, 1-[5-ethylsulfonyl-6-[3-(2,2,3,3,3-pentafluoropropyl)imidazo [4,5-c]pyridin-6-yl]-3-pyridyl]cyclopropane-carbonitrile] | ≥ 80% | ≥ 80% | ≥ 80% |  | ≥ 80% | ≥ 80% |  | 
12 |  | CCS(=O)(=O)c1cc(C(C)(C)C#N)cnc1-c1cc2ncn(CC(F)(F)C(F)(F)F)c2cn1 [Compound P40, 2-[5-ethylsulfonyl-6-[3-(2,2,3,3,3-pentafluoropropyl)imidazo[4,5-c]pyridin-6-yl]-3-pyridyl]-2-methyl-propanenitrile] | ≥ 80% | ≥ 80% | ≥ 80% | ≥ 80% | ≥ 80% | ≥ 80% |  | 
13 |  | CCSc1cc(C(C)(C)C#N)cnc1-c1cc2ncn(CC(F)(F)C(F)(F)F)c2cn1 [Compound P47, 2-[5-ethylsulfanyl-6-[3-(2,2,3,3,3-pentafluoropropyl)imidazo[4,5-c]pyridin-6-yl]-3-pyridyl]-2-methyl-propanenitrile] |  | ≥ 80% | ≥ 80% |  |  | ≥ 80% |  | ≥ 80%
